According to PMC11190208, “Bacterial c-di-GMP triggers metamorphosis of mussel larvae through a STING receptor” (NPJ Biofilms and Microbiomes, 2024):

Biological target: T1, McSTING (Mytilus coruscus, UniProt A0A7U0FWW1)
T1 construct: gene STING-3; full-length 1-716aa, pColdIII vector, expressed in E. coli Rosetta
Test: SPR (OpenSPR, McSTING immobilised on COOH chip)
Type: binding
Text: SPR (OpenSPR, McSTING immobilised on COOH chip) on McSTING | concentration-dependent binding of the recombinant protein McSTING to synthetic c-di-GMP with a KD of […]

T1 sequence (A0A7U0FWW1 entry or part of it): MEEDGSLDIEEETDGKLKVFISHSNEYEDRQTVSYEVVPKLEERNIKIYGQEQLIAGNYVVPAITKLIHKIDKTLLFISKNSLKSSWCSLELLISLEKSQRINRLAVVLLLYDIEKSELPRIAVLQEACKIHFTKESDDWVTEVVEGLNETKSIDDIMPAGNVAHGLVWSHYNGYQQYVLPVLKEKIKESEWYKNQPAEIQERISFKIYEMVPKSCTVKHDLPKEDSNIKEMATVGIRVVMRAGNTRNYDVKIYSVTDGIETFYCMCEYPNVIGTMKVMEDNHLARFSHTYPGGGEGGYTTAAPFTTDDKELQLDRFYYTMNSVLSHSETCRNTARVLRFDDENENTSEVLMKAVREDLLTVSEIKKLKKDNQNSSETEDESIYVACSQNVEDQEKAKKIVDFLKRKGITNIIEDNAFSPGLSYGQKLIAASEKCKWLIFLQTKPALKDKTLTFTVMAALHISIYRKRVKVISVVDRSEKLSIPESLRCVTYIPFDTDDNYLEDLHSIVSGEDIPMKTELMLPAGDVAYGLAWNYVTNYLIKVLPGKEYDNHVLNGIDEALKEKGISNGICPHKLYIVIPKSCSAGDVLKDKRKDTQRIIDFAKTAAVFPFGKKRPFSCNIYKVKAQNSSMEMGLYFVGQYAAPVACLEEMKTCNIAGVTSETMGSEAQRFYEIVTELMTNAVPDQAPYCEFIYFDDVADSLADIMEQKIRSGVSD

Kd: 42.7 µM
Compound: Nc1nc2c(ncn2[C@@H]2O[C@@H]3CO[P@](=O)(O)O[C@H]4[C@@H](O)[C@H](n5cnc6c(=O)[nH]c(N)nc65)O[C@@H]4CO[P@](=O)(O)O[C@H]3[C@H]2O)c(=O)[nH]1 [c-di-GMP]
